Data taken from patent US7214495B2, “Screening method” (Takeda Pharmaceutical Company Limited, priority 2002, dated 2007).

Test system: mouse insulinoma MIN6 cells
Assay: Insulin secretion from MIN6 cells with free fatty acid-BSA mixture (RIA)
Format: cell-based
Conditions: 300 μM to 1000 μM; fatty acid-BSA 4:1; 11 mM glucose; 90 (or 60) minutes
Description: The MIN6 cells were cultured in DMEM (high glucose, Invitrogen) containing 15% FCS (Trace Scientific Ltd.), 55 μM 2-mercaptoethanol, 100 U/ml penicillin and 100 μg/ml streptomycin, unless otherwise indicated. MIN6 cells were plated in a 96-well plate in 10^5 cells/well, followed by incubation at 37° C. for 3 days in a CO2 incubator adjusted to a concentration of 5% CO2. The medium was replaced by RPMI1640 (glucose free, Invitrogen) containing 10% FCS (Trace Scientific Ltd.), 5.5 mM glucose, 100 U/ml penicillin and 100 μg/ml streptomycin, followed by incubation for further 24 hours. After the medium was removed by suction, a solution mixture of free fatty acid-bovine serum albumin (BSA) (in a molar ratio of 4:1) diluted with RPMI1640 (glucose free, Invitrogen) containing 10% FCS (Trace Scientific Ltd.), 11 mM glucose, 100 U/ml penicillin and 100 μg/ml streptomycin was added to the cells, followed by reacting in a CO2 incubator adjusted to a 5% CO2 concentration at 37° C. for 90 minutes (or 60 minutes). After the reaction, the 96-well plate was centrifuged at 1500 rpm for 5 minutes and the culture supernatant was then recovered. The amount of insulin secreted into the culture supernatant was determined by radioimmunoassay (RIA) using the rat insulin RIA system (Amersham Pharmacia).

Row | Structure (SMILES) | insulin secretion by MIN6 cells
1 | CCCCC/C=C\C/C=C\C/C=C\CCCCC(=O)O [γ-Linolenic acid (C18:3), γ-Linolenic acid] | promoted
2 | CCCCCCCC/C=C\CCCCCCCC(=O)O [Oleic acid (C18:1), Oleic acid] | promoted
